This is an account of results in patent US20210236476A1, “METHODS OF TREATING CANCER WITH SMALL MOLECULE PD-L1 INHIBITORS” (CHEMOCENTRYX, INC., priority 2018, published 2021).

In the assay the target is T1, human PD-L1 / human PD-1 interaction (Homo sapiens, UniProt Q9NZQ7).
T1 construct: purchased R&D (PD-L1); ACRO Biosystems (PD-1, biotin)
The experiment in a line: ELISA of PD-1/PD-L1 interaction. In kind it is binding. Put shortly: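 Plates coated with 1 μg/mL human PD-L1 and blocked with BSA; serially diluted (1:5) compounds plus biotinylated human PD-1 (0.3 μg/mL) incubated 1 h at 37° C. Bound PD-1 detected with streptavidin-HRP/TMB, absorbance at 450 nm.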
For orientation: An ELISA detects its analyte on a solid surface through an enzyme-linked reagent.

Some results are limits rather than exact numbers.

One may read the IC50 as the concentration needed to halve the response being measured. High values mean weaker potency in that assay, low ones greater potency in that assay.

T1 sequence (Q9NZQ7 19-239 limits assumed): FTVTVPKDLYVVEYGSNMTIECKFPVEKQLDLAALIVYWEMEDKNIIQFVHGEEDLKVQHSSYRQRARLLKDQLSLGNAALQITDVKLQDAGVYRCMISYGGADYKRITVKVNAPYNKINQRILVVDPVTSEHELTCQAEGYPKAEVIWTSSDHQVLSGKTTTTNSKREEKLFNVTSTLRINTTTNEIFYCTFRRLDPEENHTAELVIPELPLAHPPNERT

`N#Cc1cncc(COc2cc(O[C@H]3CCc4c(-c5cccc(OCCCN6CCC(O)CC6)c5Cl)cccc43)c(Cl)cc2CN[C@@H](CO)C(=O)O)c1` registered a half-maximal inhibitory concentration (IC50) of less than 5 nM. In the case of `C[C@@H](O)[C@H](NCc1cc(Cl)c(O[C@H]2CCc3c(-c4cccc(OCCCN5CCC(O)CC5)c4Cl)cccc32)cc1OCc1cncc(C#N)c1)C(=O)O`, the IC50 was less than 5 nM. The molecule `Cc1c(OCCCN2CCC(O)CC2)cccc1-c1cccc2c1CC[C@@H]2Oc1cc(OCc2cncc(C#N)c2)c(CN[C@@](C)(CO)C(=O)O)cc1Cl` displayed an IC50 of less than 5 nM.

Turning to `Cc1c(OCCCN2CCC(O)CC2)cccc1-c1cccc2c1CC[C@@H]2Oc1cc(OCc2cncc(C#N)c2)c(CN[C@@H]2CCCC[C@@H]2O)cc1Cl`, the IC50 is less than 5 nM. The molecule `Cc1c(OCCCN2CC3(CC(O)C3)C2)cccc1-c1cccc2c1CC[C@@H]2Oc1cc(OCc2cncc(C#N)c2)c(CN[C@H](C(=O)O)[C@@H](C)O)cc1Cl` returned an IC50 of less than 5 nM. `Cc1c(OCCCN2CCC(O)CC2)cccc1-c1cccc2c1CC[C@@H]2Oc1cc(OCc2cc(C#N)cc(C#N)c2)c(CN[C@@H](CO)C(=O)O)cc1Cl`: the IC50 was less than 5 nM. Under `CN1CCC(COc2cccc(-c3cccc4c3CC[C@@H]4Oc3cc(OCc4cncc(C#N)c4)c(CN[C@@H]4CCCC[C@@H]4O)cc3Cl)c2Cl)C1` (stereo partly drawn) stands less than 5 nM; under `CN1CCC(COc2cccc(-c3cccc4c3CC[C@@H]4Oc3cc(OCc4cncc(C#N)c4)c(CNC[C@H]4CCC(=O)N4)cc3Cl)c2Cl)C1` (stereo partly drawn), less than 5 nM; under `N#Cc1cncc(COc2cc(O[C@H]3CCc4c(-c5cccc(OCCCN6CC7(C6)CC(F)(F)C7)c5Cl)cccc43)c(Cl)cc2CN[C@@H]2CCC[C@@H]2O)c1`, less than 5 nM.

`N#Cc1cncc(COc2cc(O[C@H]3CCc4c(-c5cccc(OCCCN6CC7(C6)CC(F)(F)C7)c5Cl)cccc43)c(Cl)cc2CN[C@@H]2CCC[C@H]2O)c1` yielded an IC50 of less than 5 nM.

`N#Cc1cncc(COc2cc(O[C@H]3CCc4c(-c5cccc(OCCCN6CC7(C6)CC(F)(F)C7)c5Cl)cccc43)c(Cl)cc2CN[C@H]2CCC[C@H]2O)c1` yielded an IC50 of less than 5 nM. For the molecule `N#Cc1cncc(COc2cc(O[C@H]3CCc4c(-c5cccc(OCCCN6CC7(C6)CC(F)(F)C7)c5Cl)cccc43)c(Cl)cc2CN[C@H]2CCC[C@@H]2O)c1`, the IC50 is less than 5 nM.

`Cc1c(OCCCN2CC3(CCC3)C2)cccc1-c1cccc2c1CC[C@@H]2Oc1cc(OCc2cc(C#N)cc(C#N)c2)c(CNC[C@@H]2CCC(=O)N2)cc1Cl` yielded an IC50 of less than 5 nM. `Cc1c(OCCCN2CCC(C)CC2)cccc1-c1cccc2c1CC[C@@H]2Oc1cc(OCc2cc(C#N)cc(C#N)c2)c(CNC[C@H]2CCC(=O)N2)cc1Cl` came in with an IC50 of less than 5 nM. For the molecule `Cc1c(OCCCN2CCC(C)CC2)cccc1-c1cccc2c1CC[C@@H]2Oc1cc(OCc2cc(C#N)cc(C#N)c2)c(CNC[C@@H]2CCC(=O)N2)cc1Cl`, the IC50 was less than 5 nM. `Cc1c(OCCCN2CC3(CC(O)C3)C2)cccc1-c1cccc2c1CC[C@@H]2Oc1cc(OCc2cc(C#N)cc(C#N)c2)c(CNC[C@H]2CCC(=O)N2)cc1Cl` returned an IC50 of less than 5 nM. Turning to `Cc1c(OCCCN2CCC(C)(F)CC2)cccc1-c1cccc2c1CC[C@@H]2Oc1cc(OCc2cncc(C#N)c2)c(CNC[C@@H]2CCC(=O)N2)cc1Cl`, the IC50 is less than 5 nM. As for `N#Cc1cncc(COc2cc(O[C@H]3CCc4c(-c5cccc(OCCCN6CCC(F)CC6)c5Cl)cccc43)c(Cl)cc2CN[C@@H]2CC[C@H]2O)c1`, the figure is less than 5 nM. On to `N#Cc1cncc(COc2cc(O[C@H]3CCc4c(-c5cccc(OCCCN6CC7(CC(F)C7)C6)c5Cl)cccc43)c(Cl)cc2CN[C@H]2CC[C@@H]2O)c1`, for which the IC50 was less than 5 nM. Molecule `N#Cc1cncc(COc2cc(O[C@H]3CCc4c(-c5cccc(OCCCN6CC7(CC(F)C7)C6)c5Cl)cccc43)c(Cl)cc2CN[C@@H]2CC[C@H]2O)c1` came in with an IC50 of less than 5 nM. As for `Cc1c(OCCCN2CC3(CC(F)C3)C2)cccc1-c1cccc2c1CC[C@@H]2Oc1cc(OCc2cc(C#N)cc(C#N)c2)c(CN[C@H]2CCC(=O)NC2)cc1Cl`, the figure is less than 5 nM. For the molecule `Cc1c(OCCCN2CCC(F)CC2)cccc1-c1cccc2c1CC[C@@H]2Oc1cc(OCc2cc(C#N)cc(C#N)c2)c(CN[C@@H]2CCC(=O)NC2)cc1Cl`, the IC50 is less than 5 nM. In the case of `N#Cc1cncc(COc2cc(O[C@H]3CCc4c(-c5cccc(OCCCN6CC7(C6)CC(F)(F)C7)c5Cl)cccc43)c(Cl)cc2CN[C@@H]2CC[C@H]2O)c1`, the IC50 was less than 5 nM. Take `Cc1c(OCCCN2CCCCC2)cccc1-c1cccc2c1CC[C@@H]2Oc1cc(OCc2cncc(C#N)c2)c(CNC[C@H]2CCC(=O)N2)cc1Cl`: the IC50 is less than 5 nM. Take `Cc1c(OCCCN2CCCCC2)cccc1-c1cccc2c1CC[C@@H]2Oc1cc(OCc2cncc(C#N)c2)c(CNC[C@@H]2CCC(=O)N2)cc1Cl`: the IC50 was less than 5 nM.

`Cc1c(OCCCN2CCC(C)(O)CC2)cccc1-c1cccc2c1CC[C@@H]2Oc1cc(OCc2cc(C#N)cc(C#N)c2)c(CNC[C@@H]2CCC(=O)N2)cc1Cl` showed an IC50 of less than 5 nM.

Take `N#Cc1cncc(COc2cc(O[C@H]3CCc4c(-c5cccc(OCCCN6CCC6)c5Cl)cccc43)c(Cl)cc2CNC[C@@H]2CCC(=O)N2)c1`: the IC50 was less than 5 nM. In turn, `CN1CCC(COc2cccc(-c3cccc4c3CC[C@@H]4Oc3cc(OCc4cncc(C#N)c4)c(CNC[C@@H]4CCC(=O)N4)cc3Cl)c2Cl)C1` (stereo partly drawn) gave an IC50 of less than 5 nM. Turning to `Cc1c(OCCCN2CCCC[C@H]2C)cccc1-c1cccc2c1CC[C@@H]2Oc1cc(OCc2cc(C#N)cc(C#N)c2)c(CNC[C@H]2CCC(=O)N2)cc1Cl`, the IC50 is less than 5 nM.

As for `CC1(F)CCN(CCCOc2cccc(-c3cccc4c3CC[C@@H]4Oc3cc(OCc4cncc(C#N)c4)c(CN[C@H]4CCC(=O)NC4)cc3Cl)c2Cl)CC1`, the IC50 fell in the range of 5 to 500 nM. As for `Cc1c(OCCCN2CCC2)cccc1-c1cccc2c1CC[C@@H]2Oc1cc(OCc2cc(C#N)cc(C#N)c2)c(CNC[C@H]2CCC(=O)N2)cc1Cl`, the figure is less than 5 nM; as for `CC1(F)CCN(CCCOc2cccc(-c3cccc4c3CC[C@@H]4Oc3cc(OCc4cncc(C#N)c4)c(CNC[C@@H]4CCC(=O)N4)cc3Cl)c2Cl)CC1`, less than 5 nM; as for `Cc1c(OCCCN2CCC(O)CC2(C)C)cccc1-c1cccc2c1CC[C@@H]2Oc1cc(OCc2cc(C#N)cc(C#N)c2)c(CN[C@H]2CCC(=O)NC2)cc1Cl` (stereo partly drawn), less than 5 nM. Molecule `Cc1c(OCCCN2CCCC2)cccc1-c1cccc2c1CC[C@@H]2Oc1cc(OCc2cc(C#N)cc(C#N)c2)c(CN[C@H]2CCC(=O)NC2)cc1Cl` yielded an IC50 of less than 5 nM.

`Cc1c(OCCCN2CCC(F)CC2)cccc1-c1cccc2c1CC[C@@H]2Oc1cc(OCc2cc(C#N)cc(C#N)c2)c(CNCC(=O)NS(C)(=O)=O)cc1Cl` came in with an IC50 of less than 5 nM. Molecule `Cc1c(OCCCN2CCC(C)(F)CC2)cccc1-c1cccc2c1CC[C@@H]2Oc1cc(OCc2cc(C#N)cc(C#N)c2)c(CN[C@@H]2CCC[C@H]2O)cc1Cl` gave an IC50 of 5 to 500 nM. Turning to `Cc1c(OCCCN2CCC(C)CC2)cccc1-c1cccc2c1CC[C@@H]2Oc1cc(OCc2cc(C#N)cc(C#N)c2)c(CN[C@H]2CCC(=O)NC2)cc1Cl`, the IC50 is 5 to 500 nM. `CCN1CCC(COc2cccc(-c3cccc4c3CC[C@@H]4Oc3cc(OCc4cncc(C#N)c4)c(CNC[C@@H]4CCC(=O)N4)cc3Cl)c2Cl)C1` (stereo partly drawn) had an IC50 of less than 5 nM.

`Cc1c(OCCCN2[C@H](C)CCC[C@@H]2C)cccc1-c1cccc2c1CC[C@@H]2Oc1cc(OCc2cc(C#N)cc(C#N)c2)c(CN[C@H]2CCC(=O)NC2)cc1Cl` gave an IC50 of 5 to 500 nM. For the molecule `CC(C)N1CCC(COc2cccc(-c3cccc4c3CC[C@@H]4Oc3cc(OCc4cncc(C#N)c4)c(CNC[C@@H]4CCC(=O)N4)cc3Cl)c2Cl)C1` (stereo partly drawn), the IC50 is less than 5 nM. Under `CC(C)N1CCC(COc2cccc(-c3cccc4c3CC[C@@H]4Oc3cc(OCc4cncc(C#N)c4)c(CN[C@H]4CCC(=O)NC4)cc3Cl)c2Cl)C1` (stereo partly drawn) stands less than 5 nM; under `Cc1c(OCCCN2C(C)CCC2C)cccc1-c1cccc2c1CC[C@@H]2Oc1cc(OCc2cc(C#N)cc(C#N)c2)c(CN[C@H]2CCC(=O)NC2)cc1Cl` (stereo partly drawn), less than 5 nM; under `Cc1c(OCCCN2CCCC2C(C)C)cccc1-c1cccc2c1CC[C@@H]2Oc1cc(OCc2cc(C#N)cc(C#N)c2)c(CN[C@H]2CCC(=O)NC2)cc1Cl` (stereo partly drawn), 5 to 500 nM. In the case of `Cc1c(OCCCN2CCCC2(C)C)cccc1-c1cccc2c1CC[C@@H]2Oc1cc(OCc2cc(C#N)cc(C#N)c2)c(CN[C@H]2CCC(=O)NC2)cc1Cl`, the IC50 was less than 5 nM. The molecule `CCN1CCC(COc2cccc(-c3cccc4c3CC[C@@H]4Oc3cc(OCc4cncc(C#N)c4)c(CN[C@H]4CCC(=O)NC4)cc3Cl)c2Cl)C1` (stereo partly drawn) registered an IC50 of less than 5 nM.

The molecule `Cc1c(OCCCN2CCCC[C@@H]2C)cccc1-c1cccc2c1CC[C@@H]2Oc1cc(OCc2cc(C#N)cc(C#N)c2)c(CN[C@H]2CCC(=O)NC2)cc1Cl` registered an IC50 of less than 5 nM.

In the case of `Cc1c(OCCCN2CCC(F)CC2)cccc1-c1cccc2c1CC[C@@H]2Oc1cc(OCc2cc(C#N)cc(C#N)c2)c(CNC2CCNC(=O)C2)cc1Cl` (stereo partly drawn), the IC50 was less than 5 nM. As for `Cc1c(OCCCN2C(C)CC2C)cccc1-c1cccc2c1CC[C@@H]2Oc1cc(OCc2cc(C#N)cc(C#N)c2)c(CN[C@H]2CCC(=O)NC2)cc1Cl` (stereo partly drawn), the figure is less than 5 nM; as for `Cc1c(OCCCN2CCC2(C)C)cccc1-c1cccc2c1CC[C@@H]2Oc1cc(OCc2cc(C#N)cc(C#N)c2)c(CN[C@H]2CCC(=O)NC2)cc1Cl`, less than 5 nM. On to `N#Cc1cncc(COc2cc(O[C@H]3CCc4c(-c5cccc(OCCCN6CCC(F)CC6)c5Cl)cccc43)c(Cl)cc2CN2CC(C(=O)O)C2)c1`, for which the IC50 was less than 5 nM. In turn, `Cc1c(OCCCN2[C@H](C)CC[C@@H]2C)cccc1-c1cccc2c1CC[C@@H]2Oc1cc(OCc2cc(C#N)cc(C#N)c2)c(CN[C@H]2CCC(=O)NC2)cc1Cl` showed an IC50 of less than 5 nM.

Molecule `Cc1c(OCCCN2[C@H](C)CC[C@H]2C)cccc1-c1cccc2c1CC[C@@H]2Oc1cc(OCc2cc(C#N)cc(C#N)c2)c(CN[C@H]2CCC(=O)NC2)cc1Cl` yielded an IC50 of less than 5 nM. Molecule `Cc1c(OCCCN2[C@@H](C)CC[C@@H]2C)cccc1-c1cccc2c1CC[C@@H]2Oc1cc(OCc2cc(C#N)cc(C#N)c2)c(CN[C@H]2CCC(=O)NC2)cc1Cl` returned an IC50 of less than 5 nM. As for `Cc1c(OCCCN2CC(C)(C)C2)cccc1-c1cccc2c1CC[C@@H]2Oc1cc(OCc2cc(C#N)cc(C#N)c2)c(CN[C@H]2CCC(=O)NC2)cc1Cl`, the figure is less than 5 nM.
